Results taken from US20260166128A1, “HUMAN AMYLIN ANALOG, AND DERIVATIVE THEREOF AND USE THEREOF” (priority 2022, published 2026).
Numbered stars: 1 amine (or outer) side, 2 acyl side, 3 side chain; on linkers, the order of the positions; unused ones are H or OH. Bridge positions count the residues as written; N and C are the ends. Square brackets hold non-standard residues; d marks the D form. Side chains are listed from the residue outwards. Peptide text beside a SMILES is read from it. * marks the point of attachment. C20 diacid = O=C(O)CCCCCCCCCCCCCCCCCCC(=O)*; C18 diacid = O=C(O)CCCCCCCCCCCCCCCCC(=O)*; γGlu = O=C(O)[C@H](CCC(=O)[*:2])N[*:1]; Hyp = O=C(O)[C@@H]1C[C@@H](O)CN1; AEEA = NCCOCCOCC(=O)O

Molecular target: T1, human amylin receptor (Homo sapiens, UniProt O60896+P30988)
T1 construct: host or cells: CHO-K1/Ga15/AMY3 cells, further stably transfected with a CRE-luciferase plasmid
T1 sequence (P30988 25-474): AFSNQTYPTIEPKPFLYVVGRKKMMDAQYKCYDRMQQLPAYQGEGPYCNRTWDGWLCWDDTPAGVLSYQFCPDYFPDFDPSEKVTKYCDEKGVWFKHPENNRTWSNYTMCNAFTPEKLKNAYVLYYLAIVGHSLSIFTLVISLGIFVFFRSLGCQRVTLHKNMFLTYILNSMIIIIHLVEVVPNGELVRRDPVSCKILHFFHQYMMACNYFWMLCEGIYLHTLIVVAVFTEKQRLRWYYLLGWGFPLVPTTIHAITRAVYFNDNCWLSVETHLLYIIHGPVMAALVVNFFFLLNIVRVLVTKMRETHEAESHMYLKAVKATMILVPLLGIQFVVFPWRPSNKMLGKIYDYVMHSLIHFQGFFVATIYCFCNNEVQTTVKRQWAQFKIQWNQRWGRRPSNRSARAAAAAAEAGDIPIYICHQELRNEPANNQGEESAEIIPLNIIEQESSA
T1 sequence (O60896 24-148 partner): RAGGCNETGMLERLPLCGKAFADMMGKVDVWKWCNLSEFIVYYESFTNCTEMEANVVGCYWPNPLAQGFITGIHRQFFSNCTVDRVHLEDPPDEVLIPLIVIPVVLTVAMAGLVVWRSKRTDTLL
Assay: Luciferase assay of amylin derivatives in amylin receptor/CRE-luc CHO cell line
Format: cell-based
Settings: CHO-K1/Ga15/AMY3 CRE-luc cells, 24 hours incubation, F12 medium containing 10% FBS; read-out: EC50
Description: The experiment was intended to detect the activity or efficacy of the amylin derivatives on a human amylin receptor in vitro by luciferase assay.
50 μL of growth medium (F12 medium containing 10% FBS) was added into each well of a white 96-well plate, and the stably transfected amylin/CRE-lue CHO cells were inoculated into the white 96-well plate at a density of about 20,000 cells/well for activity determination.

CC[C@H](C)[C@H](NC(=O)[C@@H]1CCCN1C(=O)[C@H](CCCCNC(=O)CC[C@H](NC(=O)CCCCCCCCCCCCCCCCCCC(=O)O)C(=O)O)NC(=O)[C@H](CC(C)C)NC(=O)[C@H](CC(N)=O)NC(=O)[C@H](CC(N)=O)NC(=O)[C@H](CO)NC(=O)[C@H](CO)NC(=O)[C@H](Cc1c[nH]cn1)NC(=O)[C@H](CCCNC(=N)N)NC(=O)[C@H](CC(C)C)NC(=O)[C@H](Cc1ccccc1)NC(=O)[C@H](CC(=O)O)NC(=O)[C@H](C)NC(=O)[C@H](CC(C)C)NC(=O)[C@H](CCCNC(=N)N)NC(=O)[C@H](CCC(N)=O)NC(=O)[C@@H](NC(=O)[C@H](C)NC(=O)[C@@H]1CSSC[C@H](NC(=O)[C@@H](N)CC(=O)O)C(=O)N[C@@H](CC(N)=O)C(=O)N[C@@H]([C@@H](C)O)C(=O)N[C@@H](C)C(=O)N[C@@H]([C@@H](C)O)C(=O)N1)[C@@H](C)O)C(=O)N[C@@H](CC(C)C)C(=O)N1CCC[C@H]1C(=O)N1CCC[C@H]1C(=O)N[C@H](C(=O)N[C@@H](CC(N)=O)C(=O)N[C@H](C(=O)NCC(=O)N[C@@H](CO)C(=O)N[C@@H](CC(N)=O)C(=O)N[C@H](C(=O)N1C[C@H](O)C[C@H]1C(N)=O)[C@@H](C)O)C(C)C)[C@@H](C)O [PD079] (H-DCNTATCATQRLADFLRHSSNNLK([γGlu-C20 diacid])PILPPTNVGSNT[Hyp]-NH2; disulfide 2-7)
EC50: 0.131 nM

CC[C@H](C)[C@H](NC(=O)[C@@H]1CCCN1C(=O)[C@H](CCCCNC(=O)CC[C@H](NC(=O)CCCCCCCCCCCCCCCCCCC(=O)O)C(=O)O)NC(=O)[C@H](CC(C)C)NC(=O)[C@H](CC(N)=O)NC(=O)[C@H](CC(N)=O)NC(=O)[C@H](CO)NC(=O)[C@H](CO)NC(=O)[C@H](Cc1c[nH]cn1)NC(=O)[C@H](CCCNC(=N)N)NC(=O)[C@H](CC(C)C)NC(=O)[C@H](Cc1ccccc1)NC(=O)[C@H](CC(=O)O)NC(=O)[C@H](C)NC(=O)[C@H](CC(C)C)NC(=O)[C@H](CCCNC(=N)N)NC(=O)[C@H](CCC(N)=O)NC(=O)[C@@H](NC(=O)[C@H](C)NC(=O)[C@@H]1CSSC[C@H](NC(=O)[C@@H](N)CCC(=O)O)C(=O)N[C@@H](CC(N)=O)C(=O)N[C@@H]([C@@H](C)O)C(=O)N[C@@H](C)C(=O)N[C@@H]([C@@H](C)O)C(=O)N1)[C@@H](C)O)C(=O)N[C@@H](CC(C)C)C(=O)N1CCC[C@H]1C(=O)N1CCC[C@H]1C(=O)N[C@H](C(=O)N[C@@H](CC(N)=O)C(=O)N[C@H](C(=O)NCC(=O)N[C@@H](CO)C(=O)N[C@@H](CC(N)=O)C(=O)N[C@H](C(=O)N1C[C@H](O)C[C@H]1C(N)=O)[C@@H](C)O)C(C)C)[C@@H](C)O [PD080] (H-ECNTATCATQRLADFLRHSSNNLK([γGlu-C20 diacid])PILPPTNVGSNT[Hyp]-NH2; disulfide 2-7)
EC50: 0.11 nM

CC[C@H](C)[C@H](NC(=O)[C@@H]1CCCN1C(=O)[C@H](CCCCNC(=O)COCCOCCNC(=O)COCCOCCNC(=O)CC[C@H](NC(=O)CCCCCCCCCCCCCCCCCCC(=O)O)C(=O)O)NC(=O)[C@H](CC(C)C)NC(=O)[C@H](CC(N)=O)NC(=O)[C@H](CC(N)=O)NC(=O)[C@H](CO)NC(=O)[C@H](CO)NC(=O)[C@H](Cc1c[nH]cn1)NC(=O)[C@H](CCCNC(=N)N)NC(=O)[C@H](CC(C)C)NC(=O)[C@H](Cc1ccccc1)NC(=O)[C@H](CC(=O)O)NC(=O)[C@H](C)NC(=O)[C@H](CC(C)C)NC(=O)[C@H](CCCNC(=N)N)NC(=O)[C@H](CCC(N)=O)NC(=O)[C@@H](NC(=O)[C@H](C)NC(=O)[C@@H]1CSSC[C@H](NC(=O)[C@@H](N)CCCNC(=N)N)C(=O)N[C@@H](CC(N)=O)C(=O)N[C@@H]([C@@H](C)O)C(=O)N[C@@H](C)C(=O)N[C@@H]([C@@H](C)O)C(=O)N1)[C@@H](C)O)C(=O)N[C@@H](CC(C)C)C(=O)N1CCC[C@H]1C(=O)N1CCC[C@H]1C(=O)N[C@H](C(=O)N[C@@H](CC(N)=O)C(=O)N[C@H](C(=O)NCC(=O)N[C@@H](CO)C(=O)N[C@@H](CC(N)=O)C(=O)N[C@H](C(=O)N1C[C@H](O)C[C@H]1C(N)=O)[C@@H](C)O)C(C)C)[C@@H](C)O [PD081] (H-RCNTATCATQRLADFLRHSSNNLK([AEEA-AEEA-γGlu-C20 diacid])PILPPTNVGSNT[Hyp]-NH2; disulfide 2-7)
EC50: 0.031 nM

CC[C@H](C)[C@H](NC(=O)[C@@H]1CCCN1C(=O)CNC(=O)[C@H](CCCCNC(=O)CC[C@H](NC(=O)CCCCCCCCCCCCCCCCCCC(=O)O)C(=O)O)NC(=O)[C@H](CC(N)=O)NC(=O)[C@H](CC(N)=O)NC(=O)[C@H](CO)NC(=O)[C@H](CO)NC(=O)[C@H](Cc1c[nH]cn1)NC(=O)[C@H](CCCNC(=N)N)NC(=O)[C@H](CC(C)C)NC(=O)[C@H](Cc1ccccc1)NC(=O)[C@H](CC(=O)O)NC(=O)[C@H](C)NC(=O)[C@H](CC(C)C)NC(=O)[C@H](CCCNC(=N)N)NC(=O)[C@H](CCC(N)=O)NC(=O)[C@@H](NC(=O)[C@H](C)NC(=O)[C@@H]1CSSC[C@H](NC(=O)[C@@H](N)CCCNC(=N)N)C(=O)N[C@@H](CC(N)=O)C(=O)N[C@@H]([C@@H](C)O)C(=O)N[C@@H](C)C(=O)N[C@@H]([C@@H](C)O)C(=O)N1)[C@@H](C)O)C(=O)N[C@@H](CC(C)C)C(=O)N1CCC[C@H]1C(=O)N1CCC[C@H]1C(=O)N[C@H](C(=O)N[C@@H](CC(N)=O)C(=O)N[C@H](C(=O)NCC(=O)N[C@@H](CO)C(=O)N[C@@H](CC(N)=O)C(=O)N[C@H](C(=O)N1C[C@H](O)C[C@H]1C(N)=O)[C@@H](C)O)C(C)C)[C@@H](C)O [PD082] (H-RCNTATCATQRLADFLRHSSNNK([γGlu-C20 diacid])GPILPPTNVGSNT[Hyp]-NH2; disulfide 2-7)
EC50: 0.038 nM

CC[C@H](C)[C@H](NC(=O)[C@@H]1CCCN1C(=O)CNC(=O)[C@H](CCCCNC(=O)COCCOCCNC(=O)COCCOCCNC(=O)CC[C@H](NC(=O)CCCCCCCCCCCCCCCCCCC(=O)O)C(=O)O)NC(=O)[C@H](CC(N)=O)NC(=O)[C@H](CC(N)=O)NC(=O)[C@H](CO)NC(=O)[C@H](CO)NC(=O)[C@H](Cc1c[nH]cn1)NC(=O)[C@H](CCCNC(=N)N)NC(=O)[C@H](CC(C)C)NC(=O)[C@H](Cc1ccccc1)NC(=O)[C@H](CC(=O)O)NC(=O)[C@H](C)NC(=O)[C@H](CC(C)C)NC(=O)[C@H](CCCNC(=N)N)NC(=O)[C@H](CCC(N)=O)NC(=O)[C@@H](NC(=O)[C@H](C)NC(=O)[C@@H]1CSSC[C@H](NC(=O)[C@@H](N)CCCNC(=N)N)C(=O)N[C@@H](CC(N)=O)C(=O)N[C@@H]([C@@H](C)O)C(=O)N[C@@H](C)C(=O)N[C@@H]([C@@H](C)O)C(=O)N1)[C@@H](C)O)C(=O)N[C@@H](CC(C)C)C(=O)N1CCC[C@H]1C(=O)N1CCC[C@H]1C(=O)N[C@H](C(=O)N[C@@H](CC(N)=O)C(=O)N[C@H](C(=O)NCC(=O)N[C@@H](CO)C(=O)N[C@@H](CC(N)=O)C(=O)N[C@H](C(=O)N1C[C@H](O)C[C@H]1C(N)=O)[C@@H](C)O)C(C)C)[C@@H](C)O [PD083] (H-RCNTATCATQRLADFLRHSSNNK([AEEA-AEEA-γGlu-C20 diacid])GPILPPTNVGSNT[Hyp]-NH2; disulfide 2-7)
EC50: 0.037 nM

CC[C@H](C)[C@H](NC(=O)[C@@H]1CCCN1C(=O)CNC(=O)[C@H](CCCCNC(=O)CC[C@H](NC(=O)CCCCCCCCCCCCCCCCC(=O)O)C(=O)O)NC(=O)[C@H](CC(N)=O)NC(=O)[C@H](CC(N)=O)NC(=O)[C@H](CO)NC(=O)[C@H](CO)NC(=O)[C@H](Cc1c[nH]cn1)NC(=O)[C@H](CCCNC(=N)N)NC(=O)[C@H](CC(C)C)NC(=O)[C@H](Cc1ccccc1)NC(=O)[C@H](CC(=O)O)NC(=O)[C@H](C)NC(=O)[C@H](CC(C)C)NC(=O)[C@H](CCCNC(=N)N)NC(=O)[C@H](CCC(N)=O)NC(=O)[C@@H](NC(=O)[C@H](C)NC(=O)[C@@H]1CSSC[C@H](NC(=O)[C@@H](N)CCCNC(=N)N)C(=O)N[C@@H](CC(N)=O)C(=O)N[C@@H]([C@@H](C)O)C(=O)N[C@@H](C)C(=O)N[C@@H]([C@@H](C)O)C(=O)N1)[C@@H](C)O)C(=O)N[C@@H](CC(C)C)C(=O)N1CCC[C@H]1C(=O)N1CCC[C@H]1C(=O)N[C@H](C(=O)N[C@@H](CC(N)=O)C(=O)N[C@H](C(=O)NCC(=O)N[C@@H](CO)C(=O)N[C@@H](CC(N)=O)C(=O)N[C@H](C(=O)N1C[C@H](O)C[C@H]1C(N)=O)[C@@H](C)O)C(C)C)[C@@H](C)O [PD084] (H-RCNTATCATQRLADFLRHSSNNK([γGlu-C18 diacid])GPILPPTNVGSNT[Hyp]-NH2; disulfide 2-7 (inferred); N-terminus assumed)
EC50: 0.008 nM
